According to patent publication EP4563146A1 (IRBM S.P.A., priority 2023, dated 2025):
Like-named read-outs stand apart in the source and are kept apart here.

Legend:
ZIKV replicon = test: ZIKV replication inhibition assay (NanoLuc replicon in Vero cells); conditions: 72 h
[1] = target: T1, West Nile Virus (WNV) NS2B-NS3 protease (West Nile virus, UniProt Q9Q6P4); test: WNV protease inhibition assay; type: biochemical; conditions: Table 4; letter codes for IC50
T1 construct: NS2B1423-1470); purchased R&D 2907-SE-020
T1 sequence (Q9Q6P4 1423-1470): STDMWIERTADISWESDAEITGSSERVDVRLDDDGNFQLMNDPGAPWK
T1 sequence (Q9Q6P4 1506-1689): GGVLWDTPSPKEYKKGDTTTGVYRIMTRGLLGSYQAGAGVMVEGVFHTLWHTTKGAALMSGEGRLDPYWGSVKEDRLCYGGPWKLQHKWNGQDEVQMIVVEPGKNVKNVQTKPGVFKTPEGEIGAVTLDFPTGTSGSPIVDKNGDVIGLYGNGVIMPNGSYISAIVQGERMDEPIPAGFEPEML
Source text: WNV protease inhibition assay

[2] = Zika virus, Vero, read-out: ZIKA Cell_Nanoluc, Vero cells with stable ZIKV replicon, 72 h, Nano-Glo readout
[3] = Zika virus, Vero, read-out: ZIKA Cell_Nanoluc

SMILES	EC50 (ZIKV replicon; [2]) [nM]	IC50 [1] [nM]	EC50 (ZIKV replicon; [3]) [nM]	EC50 (ZIKV replicon; read-out: ZIKA Cell_Nanoluc, Vero cells with stable ZIKV replicon, Nano-Glo readout) [nM]
Cc1ccccc1CC(=O)Nc1cc(NC(=O)[N-]c2c[n+]([C@@H]3CCC[C@H](C(=O)N(C)C)C3)no2)cc(C(F)(F)F)c1 (racemic) [Example 253, rac-(3-((1R,3S)-3-(Dimethylcarbamoyl)-cyclohexyl)-1,2,3-oxadiazol-3-ium-5-yl)((3-(2-(o-tolyl)-acetamido)-5-(trifluoromethyl)phenyl)-carbamoyl)amide]	1000 to 20000	100 to 1000		
Cc1ccccc1CC(=O)Nc1cc(NC(=O)[N-]c2c[n+]([C@@H]3CCC[C@H](N(C)C)C3)no2)cc(C(F)(F)F)c1 [Example 202, (3-((1R,3S)-3-(Dimethylamino)cyclohexyl)-1,2,3-oxadiazol-3-ium-5-yl)((3-(2-(o-tolyl)acetamido)-5-(trifluoromethyl)phenyl)-carbamoyl)amide]	1000 to 20000	100 to 1000		
Cc1ccccc1CC(=O)Nc1cc(NC(=O)[N-]c2c[n+]([C@H]3CCC[C@@H](CN(C)C)C3)no2)cc(C(F)(F)F)c1 (stereo in doubt) [Example 246, rac-(3-((1S,3R)-3-((Dimethylamino)methyl)-cyclohexyl)-1,2,3-oxadiazol-3-ium-5-yl)((3-(2-(o-tolyl)acetamido)-5-(trifluoromethyl)phenyl)-carbamoyl)amide]	1000 to 20000	< 100		
O=C([N-]c1c[n+](CC2CCCc3ccccc32)no1)Nc1ccnc(C(F)(F)F)c1 (racemic) [Example 200, Rac-(3-((1,2,3,4-Tetrahydronaphthalen-1-yl)methyl)-1,2,3-oxadiazol-3-ium-5-yl)((2-(trifluoromethyl)pyridin-4-yl)carbamoyl)amide]	100 to 1000	100 to 1000		
COc1ncc(-c2ccc(C[n+]3cc([N-]C(=O)Nc4cc(NC(=O)Cc5ccccc5)cc(C(F)(F)F)c4)on3)cc2)c(C)n1 [Example 1, (3-(4-(2-Methoxy-4-methylpyrimidin-5-yl)benzyl)-1,2,3-oxadiazol-3-ium-5-yl)((3-(2-phenylacetamido)-5-(trifluoromethyl)phenyl)carbamoyl)amide]	1000 to 20000	1000 to 20000		
COc1ccc(NC(=O)[N-]c2c[n+](Cc3ccc(-c4c(C)ncnc4C)cc3)no2)cc1C(F)(F)F [Example 249, (3-(4-(4,6-Dimethylpyrimidin-5-yl)benzyl)-1,2,3-oxadiazol-3-ium-5-yl)((4-methoxy-3-(trifluoromethyl)phenyl)carbamoyl)amide]	< 100	100 to 1000		
Cc1ccccc1CC(=O)Nc1cc(NC(=O)[N-]c2c[n+]([C@H]3CC[C@H](C(C)(C)O)CC3)no2)cc(C(F)(F)F)c1 [Example 206, (3-((1R,4R)-4-(2-Hydroxypropan-2-yl)cyclohexyl)-1,2,3-oxadiazol-3-ium-5-yl)((3-(2-(o-tolyl)acetamido)-5-(trifluoromethyl)phenyl)-carbamoyl)amide]		< 100	100 to 1000	
Cc1ccccc1CC(=O)Nc1cc(NC(=O)[N-]c2c[n+]([C@@H]3CCC[C@H](C(N)=O)C3)no2)cc(C(F)(F)F)c1 [Example 255, (3-((1R,3S)-3-Carbamoylcyclohexyl)-1,2,3-oxadiazol-3-ium-5-yl)((3-(2-(o-tolyl)acetamido)-5-(trifluoromethyl)phenyl)carbamoyl)amide]	1000 to 20000	100 to 1000		
Cc1nc(-c2ccc(C[n+]3cc([N-]C(=O)Nc4ccnc(C(F)(F)F)c4)on3)cc2)c(C)s1 [Example 259, (3-(4-(2,5-Dimethylthiazol-4-yl)benzyl)-1,2,3-oxadiazol-3-ium-5-yl)((2-(trifluoromethyl)pyridin-4-yl)carbamoyl)amide]	< 100	100 to 1000		
Cc1cn(C2COC2)nc1-c1ccc(C[n+]2cc([N-]C(=O)Nc3ccnc(C(F)(F)F)c3)on2)cc1 [Example 250, (3-(4-(4-Methyl-1-(oxetan-3-yl)-1H-pyrazol-3-yl)benzyl)-1,2,3-oxadiazol-3-ium-5-yl)((2-(trifluoromethyl)pyridin-4-yl)carbamoyl)amide]	100 to 1000	100 to 1000		
CC(C(=O)N(C)c1cc(NC(=O)[N-]c2c[n+]([C@H]3CC[C@H](CN(C)C)CC3)no2)cc(C(F)(F)F)c1)c1ccccc1 (stereo partly drawn) [Example 167, (3-((1R,4R)-4-((Dimethylamino)methyl)-cyclohexyl)-1,2,3-oxadiazol-3-ium-5-yl)((3-(N-methyl-2-phenylpropanamido)-5-(trifluoromethyl)phenyl)carbamoyl)amide]		100 to 1000	1000 to 20000	
CCC(C(=O)Nc1cc(NC(=O)[N-]c2c[n+]([C@H]3CC[C@H](CN(C)C)CC3)no2)cc(C(F)(F)F)c1)c1ccccc1 (stereo partly drawn) [Example 165, (3-((1R,4R)-4-((Dimethylamino)methyl)-cyclohexyl)-1,2,3-oxadiazol-3-ium-5-yl)((3-(2-phenylbutanamido)-5-(trifluoromethyl)phenyl)-carbamoyl)amide]		100 to 1000	100 to 1000	
CNC(=O)c1ccc(NC(=O)[N-]c2c[n+](Cc3ccc(-c4c(C)ncnc4C)cc3)no2)cc1C(F)(F)F [Example 273, (3-(4-(4,6-Dimethylpyrimidin-5-yl)benzyl)-1,2,3-oxadiazol-3-ium-5-yl)((4-(methyl-carbamoyl)-3-(trifluoromethyl)phenyl)carbamoyl)amide]	1000 to 20000	100 to 1000		
CN(C)C[C@H]1CC[C@H]([n+]2cc([N-]C(=O)Nc3cc(NC(=O)Cc4c(F)cccc4F)cc(C(F)(F)F)c3)on2)CC1 [Example 199, ((3-(2-(2,6-Difluorophenyl)acetamido)-5-(trifluoromethyl)phenyl)carbamoyl)(3-((1R,4R)-4-((dimethylamino)methyl)cyclohexyl)-1,2,3-oxadiazol-3-ium-5-yl)amide]		100 to 1000	< 100	
CN(C)C[C@H]1CC[C@H]([n+]2cc([N-]C(=O)Nc3cc(NC(=O)C(F)c4ccccc4F)cc(C(F)(F)F)c3)on2)CC1 (stereo partly drawn) [Example 194, (3-((1R,4R)-4-((Dimethylamino)methyl)-cyclohexyl)-1,2,3-oxadiazol-3-ium-5-yl)((3-(2-fluoro-2-(2-fluorophenyl)acetamido)-5-(trifluoromethyl)phenyl)carbamoyl)amide]		100 to 1000	< 100	
COC(=O)[C@H]1CC[C@H]([n+]2cc([N-]C(=O)Nc3cc(NC(=O)Cc4ccccc4C)cc(C(F)(F)F)c3)on2)CC1 [Example 227, (3-((1R,4R)-4-(Methoxycarbonyl)cyclohexyl)-1,2,3-oxadiazol-3-ium-5-yl)((3-(2-(o-tolyl)-acetamido)-5-(trifluoromethyl)phenyl)carbamoyl) amide]		< 100	1000 to 20000	
CNC(=O)[C@H]1CC[C@H]([n+]2cc([N-]C(=O)Nc3cc(NC(=O)Cc4ccccc4C)cc(C(F)(F)F)c3)on2)CC1 [Example 251, rac-(3-((1R,4R)-4-(Methylcarbamoyl)-cyclohexyl)-1,2,3-oxadiazol-3-ium-5-yl)((3-(2-(o-tolyl)acetamido)-5-(trifluoromethyl)phenyl)-carbamoyl)amide]		100 to 1000	1000 to 20000	
O=C([N-]c1c[n+](C[C@H]2CC[C@@H](c3cncnc3)CC2)no1)Nc1cccc(C(F)(F)F)c1 [Example 179, (3-(((1S,4S)-4-(Pyrimidin-5-yl)cyclohexyl)-methyl)-1,2,3-oxadiazol-3-ium-5-yl)((3-(trifluoromethyl)phenyl)carbamoyl)amide]		1000 to 20000	1000 to 20000	
CN1c2ccccc2CCC1C[n+]1cc([N-]C(=O)Nc2ccnc(C(F)(F)F)c2)on1 (racemic) [Example 178, rac-(3-((1-Methyl-1,2,3,4-tetrahydroquinolin-2-yl)methyl)-1,2,3-oxadiazol-3-ium-5-yl)((2-(trifluoromethyl)pyridin-4-yl)carbamoyl)amide]	100 to 1000	100 to 1000		
CN1CCc2ccccc2C1C[n+]1cc([N-]C(=O)Nc2cc(NC(=O)Cc3ccccc3)cc(C(F)(F)F)c2)on1 (racemic) [Example 192, rac-(3-((2-Methyl-1,2,3,4-tetrahydroisoquinolin-1-yl)methyl)-1,2,3-oxadiazol-3-ium-5-yl)((3-(2-phenylacetamido)-5-(trifluoromethyl)phenyl)carbamoyl)amide]	100 to 1000	100 to 1000		
Cc1ncnc(C)c1-c1ccc(C[n+]2cc([N-]C(=O)Nc3ccc(O)c(C(F)(F)F)c3)on2)cc1 [Example 261, (3-(4-(4,6-Dimethylpyrimidin-5-yl)benzyl)-1,2,3-oxadiazol-3-ium-5-yl)((4-hydroxy-3-(trifluoromethyl)phenyl)carbamoyl)amide]	< 100	< 100		
O=C([N-]c1c[n+](C[C@H]2CC[C@@H](c3cncnc3)CC2)no1)Nc1ccnc(C(F)(F)F)c1 [Example 182, (3-(((1S,4S)-4-(Pyrimidin-5-yl)cyclohexyl)methyl)-1,2,3-oxadiazol-3-ium-5-yl)((2-(trifluoromethyl)pyridin-4-yl)carbamoyl)amide]		100 to 1000	1000 to 20000	
CN(C)C[C@H]1CC[C@H]([n+]2cc([N-]C(=O)Nc3cc(NC(=O)Cc4ccc(C(=O)O)cc4)cc(C(F)(F)F)c3)on2)CC1 [Example 156, ((3-(2-(4-Carboxyphenyl)acetamido)-5-(trifluoromethyl)phenyl)carbamoyl)(3-((1R,4R)-4-((dimethylamino)methyl)cyclohexyl)-1,2,3-oxadiazol-3-ium-5-yl)amide]		1000 to 20000		1000 to 20000
Cc1nn(C)c(C)c1-c1ccc(C[n+]2cc([N-]C(=O)Nc3ccnc(C(F)(F)F)c3)on2)cc1 [Example 268, ((2-(Trifluoromethyl)pyridin-4-yl)carbamoyl)(3-(4-(1,3,5-trimethyl-1H-pyrazol-4-yl)benzyl)-1,2,3-oxadiazol-3-ium-5-yl)amide]	< 100	< 100		
Cc1nc(-c2ccc(C[n+]3cc([N-]C(=O)Nc4ccnc(C(F)(F)F)c4)on3)cc2)cs1 [Example 210, (3-(4-(2-Methylthiazol-4-yl)benzyl)-1,2,3-oxadiazol-3-ium-5-yl)((2-(trifluoromethyl)pyridin-4-yl)carbamoyl)amide]	1000 to 20000	100 to 1000		
